Type in all cases: cell-based
In assay [1] the target is T1, heteromeric KV7.2/KV7.3 channels (KCNQ2, KCNQ3) (Homo sapiens, UniProt O43525+O43526).
T1 construct: expressed in transfected cells; host or cells: CHO-K1
Nature of the assay: Automated patch-clamp (Sophion Qube 384) potency assay against KV7.2/KV7.3 channels. The settings on record: CHO-K1/Kv7.2/Kv7.3 cells; for EC50: EC50 from concentration-response of shift in Vhalf, 10 concentrations up to 30 μM, read-out: Kv7.2/7.3 EC50; for Kv7.2/7.3 ΔV1/2: maximal shift in the Vhalf from the top of the curve. The gist of the method: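 Whole-cell automated patch clamp on CHO-K1 cells stably expressing human KV7.2/KV7.3, held at −80 mV; I-V steps −100 to +20 mV (1 s) with 0 mV tail pulses, Boltzmann-fitted activation curves. Ten concentrations (1:3 from 30 μM, quadruplicate) versus 0.3% DMSO control; EC50 and maximal shift from 4-parameter fits of Vhalf shift.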
A general note: Patch clamp records ionic current or voltage across a cell membrane.

The target in assay [2] is T2, homomeric KV7.4 channel (KCNQ4) (Homo sapiens, UniProt P56696).
T2 construct: host or cells: CHO-K1
Nature of the assay: Automated patch-clamp (Qube) counter-screening assay against KV7.4 channel. The settings on record: CHO-K1 cells expressing KV7.4; class by maximal shift in the Vhalf at 30 μM. The gist of the method:
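CHO-K1 cells stably expressing homomeric human KV7.4 were recorded on the Qube automated patch clamp. Ten concentrations (1:3 dilutions from 30 μM) were tested in quadruplicate. The mean Vhalf shift was fitted with a 4-parameter logistic to give EC50 and maximal Vhalf shift, and selectivity was based on the shift at 30 μM.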

The target in assay [3] is T3, heteromeric KV7.3/KV7.5 channel (KCNQ3, KCNQ5) (Homo sapiens, UniProt O43525+Q9NR82).
T3 construct: host or cells: HEK293
Nature of the assay: Automated patch-clamp counter-screening against KV7.3/KV7.5 channel. The following applies: HEK293 cells expressing Kv7.3/KV7.5; class by maximal shift in the Vhalf at 30 μM. In a few lines:
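HEK293 cells with constitutive Kv7.3 and tetracycline-inducible Kv7.5 were recorded by automated patch clamp. Ten concentrations (1:3 series from 30 μM, quadruplicate) were tested; Vhalf shifts were fitted with a 4-parameter logistic to give EC50 and maximal Vhalf shift, with selectivity based on the shift at 30 μM.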

As to `O=C(NCc1ccnc(OCC(F)(F)F)c1)N[C@H]1CCCC[C@H]1O` [Compound 58, 1-((1S,2R)-2-Hydroxycyclohexyl)-3-((2-(2,2,2-trifluoroethoxy)pyridin-4-yl)methyl) urea], in assay [1], the EC50 came to 10500 nM and the “Kv7.2/7.3 ΔV1/2” value is 48.9 mV. In addition, in assay [2], the Kv7.4 selectivity criteria result is on record as “B (Non-selective compounds showed Kv7.4 and/or Kv7.3/7.5 ΔV1/2 higher than 15 mV (letter B in table 3))”. Also, the Kv7.3/7.5 selectivity criteria entry in assay [3] was “B (Non-selective compounds showed Kv7.4 and/or Kv7.3/7.5 ΔV1/2 higher than 15 mV (letter B in table 3))”.
For the compound `O=C(NCc1ccnc(OCC(F)(F)F)c1)NC1CCC(F)(F)CC1` [Compound 71, 1-(4,4-Difluorocyclohexyl)-3-((2-(2,2,2-trifluoroethoxy)pyridin-4-yl)methyl)urea], in assay [1], the EC50 is 1580 nM and the “Kv7.2/7.3 ΔV1/2” value came out at 55.93 mV. Further, the Kv7.4 selectivity criteria result in assay [2] is recorded as “B (Non-selective compounds showed Kv7.4 and/or Kv7.3/7.5 ΔV1/2 higher than 15 mV (letter B in table 3))”. Moreover, in assay [3], the Kv7.3/7.5 selectivity criteria result is given as “B (Non-selective compounds showed Kv7.4 and/or Kv7.3/7.5 ΔV1/2 higher than 15 mV (letter B in table 3))”.
Turning to `CN(Cc1ccnc(OCC(F)(F)F)c1)C(=O)NCCC1(C(F)(F)F)CC1` [Compound 7, 1-Methyl-1-((2-(2,2,2-trifluoroethoxy)pyridin-4-yl)methyl)-3-(2-(1-(trifluoromethyl)cyclopropyl)ethyl)urea], in assay [1], the EC50 amounted to 5130 nM and the “Kv7.2/7.3 ΔV1/2” value is 22.31 mV. In assay [2], the Kv7.4 selectivity criteria result is listed as “A (Selective compounds showed Kv7.4 and/or Kv7.3/7.5 ΔV1/2 equal to or lower than 15 mV (letter A in table 3))”. The Kv7.3/7.5 selectivity criteria entry in assay [3] was “A (Selective compounds showed Kv7.4 and/or Kv7.3/7.5 ΔV1/2 equal to or lower than 15 mV (letter A in table 3))”.
As for `Cc1cc(CNC(=O)NCCC2(C(F)(F)F)CC2)cc(OCC(F)(F)F)n1` [Compound 39, 1-((2-Methyl-6-(2,2,2-trifluoroethoxy)pyridin-4-yl)methyl)-3-(2-(1-(trifluoromethyl)cyclopropyl)ethyl)urea], in assay [1], the EC50 was determined as 1470 nM and the “Kv7.2/7.3 ΔV1/2” value stood at 21.29 mV. The Kv7.4 selectivity criteria entry in assay [2] was “A (Selective compounds showed Kv7.4 and/or Kv7.3/7.5 ΔV1/2 equal to or lower than 15 mV (letter A in table 3))”. The Kv7.3/7.5 selectivity criteria result in assay [3] was “A (Selective compounds showed Kv7.4 and/or Kv7.3/7.5 ΔV1/2 equal to or lower than 15 mV (letter A in table 3))”.
Turning to `O=C(NCc1ccnc(OCC(F)(F)F)c1)N[C@H]1c2ccccc2C[C@@H]1O` [Compound 123], in assay [1], the EC50 came out at 6670 nM and the “Kv7.2/7.3 ΔV1/2” value stood at 25.23 mV. Moreover, the Kv7.4 selectivity criteria entry in assay [2] is listed as “A (Selective compounds showed Kv7.4 and/or Kv7.3/7.5 ΔV1/2 equal to or lower than 15 mV (letter A in table 3))”. Moreover, the Kv7.3/7.5 selectivity criteria result in assay [3] is “A (Selective compounds showed Kv7.4 and/or Kv7.3/7.5 ΔV1/2 equal to or lower than 15 mV (letter A in table 3))”.
On to `Cc1ccc2c(c1)[C@@H](NC(=O)NCc1ccnc(OCC(F)(F)F)c1)CC2` [Compound 159], for which, in assay [1], the EC50 amounted to 1550 nM and the “Kv7.2/7.3 ΔV1/2” value stood at 15.05 mV. For the same compound, the Kv7.4 selectivity criteria result in assay [2] is given as “A (Selective compounds showed Kv7.4 and/or Kv7.3/7.5 ΔV1/2 equal to or lower than 15 mV (letter A in table 3))”. The Kv7.3/7.5 selectivity criteria result in assay [3] is given as “A (Selective compounds showed Kv7.4 and/or Kv7.3/7.5 ΔV1/2 equal to or lower than 15 mV (letter A in table 3))”.
In the case of `O=C(NCCC1(C(F)(F)F)CC1)NCc1ccnc(C(F)(F)F)c1` [Compound 69, 1-(2-(1-(Trifluoromethyl)cyclopropyl)ethyl)-3-((2-(trifluoromethyl)pyridin-4-yl)methyl)urea], in assay [1], the EC50 is 4280 nM and the “Kv7.2/7.3 ΔV1/2” value is reported as 23.15 mV. Also, the Kv7.4 selectivity criteria entry in assay [2] is “A (Selective compounds showed Kv7.4 and/or Kv7.3/7.5 ΔV1/2 equal to or lower than 15 mV (letter A in table 3))”. Besides, the Kv7.3/7.5 selectivity criteria result in assay [3] was “A (Selective compounds showed Kv7.4 and/or Kv7.3/7.5 ΔV1/2 equal to or lower than 15 mV (letter A in table 3))”.
In the case of `O=C(NCc1ccnc(OCC(F)(F)F)c1)N[C@H]1CCCOc2ccccc21` [Compound 142], in assay [1], the EC50 is 657 nM and the “Kv7.2/7.3 ΔV1/2” value was 16.4 mV. In addition, in assay [2], the Kv7.4 selectivity criteria entry is on record as “A (Selective compounds showed Kv7.4 and/or Kv7.3/7.5 ΔV1/2 equal to or lower than 15 mV (letter A in table 3))”. Besides, the Kv7.3/7.5 selectivity criteria entry in assay [3] was “A (Selective compounds showed Kv7.4 and/or Kv7.3/7.5 ΔV1/2 equal to or lower than 15 mV (letter A in table 3))”.
For the compound `C[C@H](Oc1cc(CNC(=O)NCCC2(C(F)(F)F)CC2)ccn1)C(F)(F)F` [Compound 47, (S)-1-(2-(1-(Trifluoromethyl)cyclopropyl)ethyl)-3-((2-((1,1,1-trifluoropropan-2-yl)oxy)pyridin-4-yl)methyl)urea], in assay [1], the EC50 was 254 nM and the “Kv7.2/7.3 ΔV1/2” value turned out to be 26.23 mV. Moreover, the Kv7.4 selectivity criteria entry in assay [2] is “A (Selective compounds showed Kv7.4 and/or Kv7.3/7.5 ΔV1/2 equal to or lower than 15 mV (letter A in table 3))”. In addition, the Kv7.3/7.5 selectivity criteria result in assay [3] was “A (Selective compounds showed Kv7.4 and/or Kv7.3/7.5 ΔV1/2 equal to or lower than 15 mV (letter A in table 3))”.
As to `O=C(NCc1ccnc(OCC(F)(F)F)c1)N[C@@H]1COc2ccccc21` [Compound 133], in assay [1], the EC50 is 2800 nM and the “Kv7.2/7.3 ΔV1/2” value is recorded as 34.47 mV. The Kv7.4 selectivity criteria result in assay [2] was “A (Selective compounds showed Kv7.4 and/or Kv7.3/7.5 ΔV1/2 equal to or lower than 15 mV (letter A in table 3))”. In addition, the Kv7.3/7.5 selectivity criteria result in assay [3] was “B (Non-selective compounds showed Kv7.4 and/or Kv7.3/7.5 ΔV1/2 higher than 15 mV (letter B in table 3))”.
On to `O=C(NCCC1(C(F)(F)F)CC1)NCc1cc(OCc2ccccc2)ncn1` [Compound 11, 1-((6-(Benzyloxy)pyrimidin-4-yl)methyl)-3-(2-(1-(trifluoromethyl)cyclopropyl)ethyl)urea], for which, in assay [1], the EC50 was found to be 1830 nM and the “Kv7.2/7.3 ΔV1/2” value is 27.09 mV. For the same compound, the Kv7.4 selectivity criteria entry in assay [2] is given as “A (Selective compounds showed Kv7.4 and/or Kv7.3/7.5 ΔV1/2 equal to or lower than 15 mV (letter A in table 3))”. Further, in assay [3], the Kv7.3/7.5 selectivity criteria entry was “B (Non-selective compounds showed Kv7.4 and/or Kv7.3/7.5 ΔV1/2 higher than 15 mV (letter B in table 3))”.
On the same counts, the results for `O=C(NCc1cccc(F)c1)NCc1ccnc(OCc2ccccc2)c1` [Compound 2, 1-((2-(Benzyloxy)pyridin-4-yl)methyl)-3-(3-fluorobenzyl)urea] are 966 nM, 16.51 mV, “A (Selective compounds showed Kv7.4 and/or Kv7.3/7.5 ΔV1/2 equal to or lower than 15 mV (letter A in table 3))” and “A (Selective compounds showed Kv7.4 and/or Kv7.3/7.5 ΔV1/2 equal to or lower than 15 mV (letter A in table 3))”.
`O=C(NCc1ccnc(C(F)(F)F)c1)N[C@@H]1CCc2ccc(F)cc21` [Compound 92]: in assay [1], the EC50 stood at 3950 nM and the “Kv7.2/7.3 ΔV1/2” value is given as 16.77 mV. In addition, the Kv7.4 selectivity criteria entry in assay [2] is on record as “A (Selective compounds showed Kv7.4 and/or Kv7.3/7.5 ΔV1/2 equal to or lower than 15 mV (letter A in table 3))”. For the same compound, the Kv7.3/7.5 selectivity criteria result in assay [3] is recorded as “A (Selective compounds showed Kv7.4 and/or Kv7.3/7.5 ΔV1/2 equal to or lower than 15 mV (letter A in table 3))”.
Consider `O=C(NCCC1(C(F)(F)F)CC1)NCc1ccnc(OCC2(F)COC2)c1` [Compound 24, 1-((2-((3-Fluorooxetan-3-yl)methoxy)pyridin-4-yl)methyl)-3-(2-(1-(trifluoromethyl)cyclopropyl)ethyl)urea], for which, in assay [1], the EC50 was determined as 11000 nM and the “Kv7.2/7.3 ΔV1/2” value is listed as 17.14 mV. Further, in assay [2], the Kv7.4 selectivity criteria result was “A (Selective compounds showed Kv7.4 and/or Kv7.3/7.5 ΔV1/2 equal to or lower than 15 mV (letter A in table 3))”. Also, the Kv7.3/7.5 selectivity criteria result in assay [3] is “A (Selective compounds showed Kv7.4 and/or Kv7.3/7.5 ΔV1/2 equal to or lower than 15 mV (letter A in table 3))”.
With `O=C(NCc1ccnc(OCC(F)(F)F)c1)NC1CCSc2ccccc21` (stereo not shown) [Compound 152], in assay [1], the EC50 came out at 1350 nM and the “Kv7.2/7.3 ΔV1/2” value was found to be 36.08 mV. Further, the Kv7.4 selectivity criteria result in assay [2] was “B (Non-selective compounds showed Kv7.4 and/or Kv7.3/7.5 ΔV1/2 higher than 15 mV (letter B in table 3))”. Also, in assay [3], the Kv7.3/7.5 selectivity criteria result is recorded as “B (Non-selective compounds showed Kv7.4 and/or Kv7.3/7.5 ΔV1/2 higher than 15 mV (letter B in table 3))”.
On to `O=C(NCc1cccc(F)c1)NCc1ccnc(OCC(F)(F)F)c1` [Compound 42, 1-(3-Fluorobenzyl)-3-((2-(2,2,2-trifluoroethoxy)pyridin-4-yl)methyl)urea], for which, in assay [1], the EC50 came out at 872 nM and the “Kv7.2/7.3 ΔV1/2” value turned out to be 16.7 mV. For the same compound, in assay [2], the Kv7.4 selectivity criteria result is “A (Selective compounds showed Kv7.4 and/or Kv7.3/7.5 ΔV1/2 equal to or lower than 15 mV (letter A in table 3))”. For the same compound, the Kv7.3/7.5 selectivity criteria entry in assay [3] is listed as “A (Selective compounds showed Kv7.4 and/or Kv7.3/7.5 ΔV1/2 equal to or lower than 15 mV (letter A in table 3))”.

(Values after US20260207563A1, “UREA COMPOUNDS AS ACTIVATORS OF POTASSIUM CHANNELS KV7.2/7.3 USEFUL IN THE TREATMENT OF CNS AND PNS DISORDERS” (ANGELINI PHARMA S.P.A., priority 2022, published 2026).)
